Assay results published in EP2848696A1, “Caspase-1 imaging probes” (Sanofi-Aventis Deutschland GmbH, priority 2013, dated 2015).

Experiments:
Caspase-1 [1] = target: T1, Caspase-1 (Homo sapiens, UniProt P29466); experiment: In vitro cleavage of the probe by caspase-1 (fluorescence / FRET change); type: biochemical; conditions: for in vitro cleavage: 10 µM probe, 10 nM caspase-1, E/S ratio 1/1000, 25 cycles: 1 min. intervals
T1 sequence (P29466 120-297 limits assumed): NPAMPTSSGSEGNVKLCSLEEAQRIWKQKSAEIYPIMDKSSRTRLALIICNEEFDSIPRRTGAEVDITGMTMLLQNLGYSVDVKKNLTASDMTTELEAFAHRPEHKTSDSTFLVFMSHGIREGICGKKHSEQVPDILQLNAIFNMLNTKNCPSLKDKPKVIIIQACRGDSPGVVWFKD
T1 sequence (P29466 317-404 limits assumed): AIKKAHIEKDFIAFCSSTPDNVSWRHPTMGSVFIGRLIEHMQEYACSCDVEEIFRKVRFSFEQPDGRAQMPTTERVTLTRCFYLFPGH
Description: (§1) The E/S ratio was 1/1000, 25 cycles: 1 min. intervals. • Figure 5: Cellular assay with Probe III; PMA=Phorbol-12-myristate-13-acetate; LPS=Lipopolysaccharide; zVAD=carbobenzoxy-valyl-alanyl-asparty-[O-methyl]-fluoromethylketone • Figure 6A-E: Kinetic characterization of probes II, VI, V, IV, and VII. • Figure 7: Cell permeability assay.

Caspase-1 [2] = target: T1, Caspase-1; experiment: Specificity of the probe towards caspase-1; type: biochemical; conditions: summary of biological assays
Description: as §1, with “The E/S ratio was 1/1000, 25 cycles: 1 min. intervals. • Figures 4A-C: show the in vitro cleavage of 10 µM probe VI in the presence of 10 nM caspase-1. […] The” for “The”

[3] = Cellular toxicity (summary statement); type: cell-based; conditions: summary of biological assays

Description for THP-1 cells: THP-1 cells were differentiated with PMA in 4-well glass chambers for 48 hours. 2 hours before the assay zVAD-fmk was added to negative controls. Probes were then added to the cells in 5 µM final concentration and the probe uptake was studied by fluorescence microscopy.

SMILES	in vitro cleavage (Caspase-1 [1])	FRET change (Caspase-1 [1]; Figure 1A, cleavage by caspase-1)	change of fluorescence intensity in response to cleavage by caspase-1 (Caspase-1 [1]; Figure 1A, dependence on enzyme dose)	FRET change (concentration dependence) (Caspase-1 [1]; summary of biological assays)	specificity (Caspase-1 [2])	toxicity [3]	Cell permeability (THP-1 cells)	Cellular entry (time) (THP-1 cells)
CCN(CC)c1ccc2cc(C(=O)NNC(=O)[C@H](CC(=O)O)NC(=O)[C@@H]3CCCN4C(=O)CC[C@H](NC(=O)c5cc6ccc(OC)cc6oc5=O)C(=O)N34)c(=O)oc2c1 [Probe III]	cleaved very efficiently	about 10 fold	enzyme dose-dependent manner	- Concentration dependent FRET change	- Superiorly specific	- No sign of toxicity	- Cell permeability	–
CCCCCCCCN(CCCCCCCC)c1ccc2c(COC(=O)CCCC(=O)NNC(=O)[C@H](CC(=O)O)NC(=O)[C@@H]3CCCN4C(=O)CC[C@H](NC(=O)c5cc6ccc(OC)cc6oc5=O)C(=O)N34)cc(=O)oc2c1 [Probe I]	–	–	–	–	–	–	–	- Cellular entry within 5-7 min.
CCN(CC)c1ccc2cc(C(=O)NCC(=O)NCCCCCCCCNC(=O)[C@H](CC(=O)O)NC(=O)[C@@H]3CCCN4C(=O)CC[C@H](NC(=O)c5cc6ccc(OC)cc6oc5=O)C(=O)N34)c(=O)oc2c1 [Probe VI]	cleaved very efficiently	–	–	–	–	–	–	–
